Experimental data taken from PubChem BioAssay AID1259407 (Chemical Carcinogenesis Research Information System (CCRIS), 2018).
Active and inactive are the calls of the source. How the calls were made is not given here.

Test system: CCRIS mutagenicity, Ames/micronucleus/aberration tests
Assay: CCRIS mutagenicity studies
[1] = Test System: AMES SALMONELLA TYPHIMURIUM, Strain/Indicator: TA100, Metabolic Activation: NONE, Method: STANDARD PLATE

CN(N=O)C(N)=O
mutagenic call (End Point: IN VITRO CHROMOSOMAL ABERRATIONS, Test System: CHINESE HAMSTER V79-E CELLS, Metabolic Activation: NONE): active; positive
mutagenic call (End Point: IN VITRO CHROMOSOMAL ABERRATIONS, Test System: V79 CELLS (V79-C10), Metabolic Activation: NONE): active; positive
mutagenic call (End Point: IN VITRO MICRONUCLEUS, Test System: CHINESE HAMSTER V79 CELLS, Metabolic Activation: NONE): active; positive at the cytotoxic dose of 0.8 mm
mutagenic call (End Point: IN VITRO MICRONUCLEUS, Test System: MOUSE LYMPHOMA L5178Y CELLS, Metabolic Activation: NONE): active; positive
mutagenic call (End Point: Mutagenicity, Test System: Spleen: t-lymphocytes/hprt mutants, Species: Rat, Strain/Sex: Wistar/male, Route: Intraperitoneal): active; positive; mutation induction dramatically lower following subchronic treatment;
mutagenic call (Test System: AMES SALMONELLA TYPHIMURIUM, Strain/Indicator: G46, Metabolic Activation: NONE, Method: STANDARD PLATE): active; positive
mutagenic call (Test System: AMES SALMONELLA TYPHIMURIUM, Strain/Indicator: TA100, Metabolic Activation: NONE, Method: LIQUID INCUBATION): active; positive
mutagenic call [1]: active; positive
mutagenic call (Test System: AMES SALMONELLA TYPHIMURIUM, Strain/Indicator: TA100, Metabolic Activation: RAT, LIVER, S-9, AROCLOR 1254, Method: PREINCUBATION): active; positive
mutagenic call (Test System: AMES SALMONELLA TYPHIMURIUM, Strain/Indicator: TA100, Metabolic Activation: RAT, LIVER, S-9, KC500 OR PHENOBARBITAL, Method: LIQUID SUSPENSION): active; positive
mutagenic call (Test System: AMES SALMONELLA TYPHIMURIUM, Strain/Indicator: TA100, Metabolic Activation: RAT, LIVER, S-9, PHENOBARBITAL, Method: STANDARD PLATE): active; positive
mutagenic call (Test System: AMES SALMONELLA TYPHIMURIUM, Strain/Indicator: TA102, Metabolic Activation: RAT, LIVER, S-9, AROCLOR 1254, Method: PREINCUBATION): active; positive
mutagenic call (Test System: AMES SALMONELLA TYPHIMURIUM, Strain/Indicator: TA104, Metabolic Activation: NONE, Method: PREINCUBATION): active; positive
mutagenic call (Test System: AMES SALMONELLA TYPHIMURIUM, Strain/Indicator: TA104, Metabolic Activation: RAT, LIVER, S-9, AROCLOR 1254, Method: PREINCUBATION): active; positive
mutagenic call (Test System: AMES SALMONELLA TYPHIMURIUM, Strain/Indicator: TA1530, Metabolic Activation: NONE, Method: PREINCUBATION): active; positive
mutagenic call (Test System: AMES SALMONELLA TYPHIMURIUM, Strain/Indicator: TA1530, Metabolic Activation: NONE, Method: STANDARD PLATE): active; positive
mutagenic call (Test System: AMES SALMONELLA TYPHIMURIUM, Strain/Indicator: TA1535, Metabolic Activation: NONE, Method: LIQUID INCUBATION): active; positive
mutagenic call (Test System: AMES SALMONELLA TYPHIMURIUM, Strain/Indicator: TA1535, Metabolic Activation: NONE, Method: PREINCUBATION): active; positive
mutagenic call (Test System: AMES SALMONELLA TYPHIMURIUM, Strain/Indicator: TA1535, Metabolic Activation: NONE, Method: STANDARD PLATE): active; positive
mutagenic call (Test System: AMES SALMONELLA TYPHIMURIUM, Strain/Indicator: TA1535, Metabolic Activation: RAT, LIVER, S-9, PCB OR PHENOBARBITAL, Method: STANDARD PLATE): active; positive
mutagenic call (Test System: AMES SALMONELLA TYPHIMURIUM, Strain/Indicator: YG7100, Metabolic Activation: NONE, Method: PREINCUBATION): active; positive
mutagenic call (Test System: AMES SALMONELLA TYPHIMURIUM, Strain/Indicator: YG7104, Metabolic Activation: NONE, Method: PREINCUBATION): active; positive
mutagenic call (Test System: AMES SALMONELLA TYPHIMURIUM, Strain/Indicator: YG7108, Metabolic Activation: NONE, Method: PREINCUBATION): active; positive
mutagenic call (Test System: AMES SALMONELLA TYPHIMURIUM, Strain/Indicator: YG7112, Metabolic Activation: NONE, Method: PREINCUBATION): active; positive
mutagenic call (Test System: AMES SALMONELLA TYPHIMURIUM, Strain/Indicator: YG7113, Metabolic Activation: NONE, Method: PREINCUBATION): active; positive
mutagenic call (Test System: AMES SALMONELLA TYPHIMURIUM, Strain/Indicator: YG7119, Metabolic Activation: NONE, Method: PREINCUBATION): active; positive
mutagenic call (Test System: CHINESE HAMSTER OVARY, Strain/Indicator: CHO-K1-BH4 (HGPRT), Metabolic Activation: NONE, Method: SUSPENSION/PLATE): active; positive
mutagenic call (Test System: CHINESE HAMSTER V-79, Strain/Indicator: V-79/6-THIOGUANINE, Metabolic Activation: NONE, Method: FLASK ASSAY): active; positive
mutagenic call (Test System: CHINESE HAMSTER V-79, Strain/Indicator: V-79/6-THIOGUANINE, Metabolic Activation: NONE, Method: STANDARD PLATE): active; positive
mutagenic call (Test System: CHINESE HAMSTER V-79, Strain/Indicator: V-79/8-AZAGUANINE, Metabolic Activation: NONE, Method: STANDARD PLATE): active; positive
mutagenic call (Test System: CHINESE HAMSTER V-79, Strain/Indicator: V-79/OUABAIN, Metabolic Activation: NONE): active; positive
mutagenic call (Test System: CHO/HGPRT, Strain/Indicator: CHO-K1-BH4, Metabolic Activation: NONE): active; positive
mutagenic call (Test System: CHO/HGPRT, Strain/Indicator: CHO-K1-BH4, Metabolic Activation: NONE, Method: STANDARD PLATE): active; positive
mutagenic call (Test System: E. COLI, Strain/Indicator: H/R30R, Metabolic Activation: NONE): active; positive
mutagenic call (Test System: E. COLI, Strain/Indicator: H/R30R, Metabolic Activation: NONE, Method: PREINCUBATION): active; positive
mutagenic call (Test System: E. COLI, Strain/Indicator: HS30R UVRA, Metabolic Activation: NONE, Method: PREINCUBATION): active; positive
mutagenic call (Test System: E. COLI, Strain/Indicator: HS30R, Metabolic Activation: NONE): active; positive
mutagenic call (Test System: E. COLI, Strain/Indicator: NG30 RECA, Metabolic Activation: NONE, Method: PREINCUBATION): active; positive
mutagenic call (Test System: E. COLI, Strain/Indicator: O16 POLA, Metabolic Activation: NONE, Method: PREINCUBATION): active; positive
mutagenic call (Test System: E. COLI, Strain/Indicator: WP2, Metabolic Activation: NONE, Method: FLUCTUATION): active; positive
mutagenic call (Test System: E. COLI, Strain/Indicator: WP2, Metabolic Activation: NONE, Method: STANDARD PLATE): active; positive
mutagenic call (Test System: E. COLI, Strain/Indicator: WP2 UVRA, Metabolic Activation: NONE, Method: FLUCTUATION): active; positive
mutagenic call (Test System: E. COLI, Strain/Indicator: WP2 UVRA, Metabolic Activation: NONE, Method: STANDARD PLATE): active; positive
mutagenic call (Test System: LacZ transgenic mouse (Muta Mouse), Strain/Indicator: LacZ Mutant frequency, Method: Liver and kidney harvested 37 days after last dose): active; positive in kidney. no increase in mutation frequency in liver.
mutagenic call (Test System: UDS HUMAN CELLS, Strain/Indicator: THY INCORP (NON-S-PHASE), Metabolic Activation: NONE, Method: LIQUID SCINTILLATION COUNTING): active; positive
mutagenic call (Test System: UDS HUMAN FIBROBLASTS, Strain/Indicator: THY INCORP (NON-S-PHASE), Metabolic Activation: NONE, Method: AUTORADIOGRAPHY): active; positive
mutagenic call (Test System: UDS MOUSE SPERMATOGONIAL AND POSTSPERMATOGONIAL CELLS IN VIVO, Strain/Indicator: THYMIDINE INCORPORATION, Metabolic Activation: NONE, Method: AUTORADIOGRAPHY): active; positive
mutagenic call (Test System: UDS RODENT CELLS, Strain/Indicator: THY INCORP (NON-S-PHASE), Metabolic Activation: NONE, Method: LIQUID SCINTILLATION COUNTING): active; positive

CC(=O)c1ccc(Cl)c(Cl)c1Cl
mutagenic call (Test System: AMES SALMONELLA TYPHIMURIUM, Strain/Indicator: TA98, Metabolic Activation: HAMSTER, LIVER, S-9, AROCLOR 1254, Method: STANDARD PLATE): active; positive
mutagenic call (Test System: AMES SALMONELLA TYPHIMURIUM, Strain/Indicator: TA98, Metabolic Activation: NONE, Method: STANDARD PLATE): inactive; negative
mutagenic call (Test System: AMES SALMONELLA TYPHIMURIUM, Strain/Indicator: TA98, Metabolic Activation: RAT, LIVER, S-9, AROCLOR 1254, Method: STANDARD PLATE): inactive; negative
mutagenic call (Test System: AMES SALMONELLA TYPHIMURIUM, Strain/Indicator: TA100, Metabolic Activation: HAMSTER, LIVER, S-9, AROCLOR 1254, Method: STANDARD PLATE): active; positive
mutagenic call [1]: inactive; negative
mutagenic call (Test System: AMES SALMONELLA TYPHIMURIUM, Strain/Indicator: TA100, Metabolic Activation: RAT, LIVER, S-9, AROCLOR 1254, Method: STANDARD PLATE): active; positive
mutagenic call (Test System: MOUSE LYMPHOMA, Strain/Indicator: L5178Y (TK+/TK-), Metabolic Activation: NONE, Method: SUSPENSION/PLATE): inactive; negative. reevaluation of results: inconclusive
mutagenic call (Test System: MOUSE LYMPHOMA, Strain/Indicator: L5178Y (TK+/TK-), Metabolic Activation: RAT, LIVER, S-9, AROCLOR 1254, Method: SUSPENSION/PLATE): inactive; negative. reevaluation of results: negative
